In US20040231558A1, “Water-color ink” (priority 2001, published 2004):

What was measured:
Assay type in all cases: physicochemical
[1] = Evaluation of light fastness-1 (OD value of printed portion after 100 hours xenon fadeometer); conditions: for (A)-1 light fastness-1: ink prepared as in Example 1 from the salt named in the row, OD value of printed portion after 100 hours xenon fadeometer
Method: (§1) The prepared ink was filled in an ink cartridge for a piezo-type ink-jet printer EM-930C (manufactured by Seiko Epson). The printing was performed with this printer, and the light fastness was evaluated. Further, the storage stability of the ink was evaluated.
(A)-1 Evaluation of Light Fastness-1
Printing density (OD value) was measured after irradiating a printed portion with light for 100 hours using a xenon fadeometer (manufactured by Suga Shikenki) to evaluate the light fastness.

[2] = Evaluation of moisture resistance (image-recorded paper at 40° C. and humidity 85%, visual observation); conditions: for (B) moisture resistance: image-recorded paper at 40° C. and humidity 85%, visually observed
[3] = Evaluation of storage stability of ink (40° C. for 3 months, insoluble matter and clogging); conditions: recording liquid stored at 40° C. for 3 months; insoluble matter and clogging
Method: as §1
(C) Evaluation of Storage Stability of Ink:
After a recording liquid was stored at 40° C. for 3 months, it was observedwhether or not an insoluble matterwas precipitated, and whether or not clogging occurred after continuous recording with the foregoing printer for a long period of time.

[4] = Evaluation of light fastness-2 (OD value of printed portion after 400 hours xenon fadeometer); conditions: ink prepared as in Example 1 from the salt named in the row; OD value of printed portion after 400 hours xenon fadeometer
Method: as §1
(A)-2 Evaluation of Light Fastness-2
Printing density (OD value) was measured after irradiating a printed-portion with light for 400 hours using axenon fadeometer (manufactured by Suga Shikenki), and the light fastness was evaluated.

[5] = ink prepared as in Example 1, for comparative inks in comparison to the ink of the invention

Compound	light fastness (in words) [1, 5]	moisture resistance (in words) [2, 5]	(C) storage stability [3]	(A)-1 light fastness-1 [1]	(A)-2 light fastness-2 [4]	(B) moisture resistance [2]
O=C(O)c1nn(-c2ccc(S(=O)(=O)O)cc2)c(O)c1N=Nc1ccc(S(=O)(=O)O)cc1 [C. I. Acid Yellow 23, reference compound]	poor	poor	◯			
Cc1c(N=Nc2cc(C(=O)O)ccc2C(=O)O)c(O)n(CCCNc2nc(Cl)nc(NCCCn3c(O)c(N=Nc4cc(C(=O)O)ccc4C(=O)O)c(C)c(C#N)c3=O)n2)c(=O)c1C#N [Compound 247]			◯	⊚	◯	⊚
N#Cc1c(C(F)(F)F)c(N=Nc2cc(C(=O)O)ccc2C(=O)O)c(O)n(CCNc2nc(Cl)nc(NCCn3c(O)c(N=Nc4cc(C(=O)O)ccc4C(=O)O)c(C(F)(F)F)c(C#N)c3=O)n2)c1=O [Compound 248]			Δ	⊚	⊚	⊚
Cc1c(N=Nc2cc(C(=O)O)ccc2C(=O)O)c(O)n(CCCCCCNc2nc(Cl)nc(NCCn3c(O)c(N=Nc4cc(C(=O)O)ccc4C(=O)O)c(C)c(C#N)c3=O)n2)c(=O)c1C#N [Compound 249]			Δ	⊚	◯	⊚
CCc1c(N=Nc2cc(C(=O)O)ccc2C(=O)O)c(O)n(CCNc2nc(Cl)nc(NCCn3c(O)c(N=Nc4cc(C(=O)O)ccc4C(=O)O)c(C(F)(F)F)c(C#N)c3=O)n2)c(=O)c1C#N [Compound 250]			Δ	⊚	◯	⊚
CCc1c(N=Nc2cc(C(=O)O)ccc2C(=O)O)c(O)n(CCNc2nc(Cl)nc(NCCn3c(O)c(N=Nc4cc(C(=O)O)ccc4C(=O)O)c(CC)c(C#N)c3=O)n2)c(=O)c1C#N [Compound 251]			Δ	⊚	⊚	⊚
Cc1c(N=Nc2cc(C(=O)O)ccc2C(=O)O)c(O)n(CCNc2nc(Cl)nc(NCCn3c(O)c(N=Nc4cc(C(=O)O)ccc4C(=O)O)c(C)c(C(N)=O)c3=O)n2)c(=O)c1C(N)=O [Compound 252]			Δ	⊚	◯	⊚
CCOC(=O)Cc1c(N=Nc2cc(C(=O)O)ccc2C(=O)O)c(O)n(CCNc2nc(Cl)nc(NCCn3c(O)c(N=Nc4cc(C(=O)O)ccc4C(=O)O)c(CC(=O)OCC)c(C#N)c3=O)n2)c(=O)c1C#N [Compound 255]			◯	⊚	◯	⊚
Cc1c(N=Nc2c(C(=O)O)cccc2C(=O)O)c(O)n(CCNc2nc(Cl)nc(NCCn3c(O)c(N=Nc4c(C(=O)O)cccc4C(=O)O)c(C)c(C#N)c3=O)n2)c(=O)c1C#N [Compound 256]			Δ	⊚	◯	⊚
Cc1c(N=Nc2cccc(C(=O)O)c2C(=O)O)c(O)n(CCCNc2nc(Cl)nc(NCCCn3c(O)c(N=Nc4cccc(C(=O)O)c4C(=O)O)c(C)c(C#N)c3=O)n2)c(=O)c1C#N [Compound 260]			Δ	⊚	◯	⊚
N#Cc1c(-c2ccccc2)c(N=Nc2cc(C(=O)O)ccc2C(=O)O)c(O)n(CCNc2nc(Cl)nc(NCCn3c(O)c(N=Nc4cc(C(=O)O)ccc4C(=O)O)c(-c4ccccc4)c(C#N)c3=O)n2)c1=O [Compound 261]			Δ	⊚	◯	⊚
Cc1c(N=Nc2cc(C(=O)O)ccc2C(=O)O)c(O)n(CCNc2nc(NCCn3c(O)c(N=Nc4cc(C(=O)O)ccc4C(=O)O)c(C)c(C#N)c3=O)nc(NCCn3c(O)c(N=Nc4cc(C(=O)O)ccc4C(=O)O)c(C)c(C#N)c3=O)n2)c(=O)c1C#N [Compound 262]			Δ	⊚	◯	⊚
Cc1c(N=Nc2cc(C(=O)O)ccc2C(=O)O)c(O)n(CCCCCCNc2nc(NCCCCCCn3c(O)c(N=Nc4cc(C(=O)O)ccc4C(=O)O)c(C)c(C#N)c3=O)nc(NCCCCCCn3c(O)c(N=Nc4cc(C(=O)O)ccc4C(=O)O)c(C)c(C#N)c3=O)n2)c(=O)c1C#N [Compound 264]			Δ	⊚	◯	⊚
N#Cc1c(C(F)(F)F)c(N=Nc2cc(C(=O)O)ccc2C(=O)O)c(O)n(CCNc2nc(NCCn3c(O)c(N=Nc4cc(C(=O)O)ccc4C(=O)O)c(C(F)(F)F)c(C#N)c3=O)nc(NCCn3c(O)c(N=Nc4cc(C(=O)O)ccc4C(=O)O)c(C(F)(F)F)c(C#N)c3=O)n2)c1=O [Compound 265]			Δ	⊚	⊚	⊚
Cc1c(N=Nc2c(C(=O)O)cccc2C(=O)O)c(O)n(CCNc2nc(NCCn3c(O)c(N=Nc4c(C(=O)O)cccc4C(=O)O)c(C)c(C#N)c3=O)nc(NCCn3c(O)c(N=Nc4c(C(=O)O)cccc4C(=O)O)c(C)c(C#N)c3=O)n2)c(=O)c1C#N [Compound 267]			Δ	⊚	◯	⊚
Cc1c(N=Nc2cccc(C(=O)O)c2C(=O)O)c(O)n(CCNc2nc(NCCn3c(O)c(N=Nc4cccc(C(=O)O)c4C(=O)O)c(C)c(C#N)c3=O)nc(NCCn3c(O)c(N=Nc4cccc(C(=O)O)c4C(=O)O)c(C)c(C#N)c3=O)n2)c(=O)c1C#N [Compound 268]			Δ	⊚	◯	⊚
Cc1c(N=Nc2cc(C(=O)O)ccc2C(=O)O)c(O)n(CCCNc2nc(NCCn3c(O)c(N=Nc4cc(C(=O)O)ccc4C(=O)O)c(C)c(C#N)c3=O)nc(NCCn3c(O)c(N=Nc4c(C(=O)O)cccc4C(=O)O)c(C)c(C#N)c3=O)n2)c(=O)c1C#N [Compound 270]			Δ	⊚	⊚	⊚
CCCCc1c(N=Nc2cc(C(=O)O)ccc2C(=O)O)c(O)n(CCNc2nc(NCCn3c(O)c(N=Nc4cc(C(=O)O)ccc4C(=O)O)c(CCCC)c(C#N)c3=O)nc(NCCn3c(O)c(N=Nc4cc(C(=O)O)ccc4C(=O)O)c(CCCC)c(C#N)c3=O)n2)c(=O)c1C#N [Compound 271]			◯	⊚	⊚	⊚
CCc1c(N=Nc2cc(C(=O)O)ccc2C(=O)O)c(O)n(CCNc2nc(NCCn3c(O)c(N=Nc4cc(C(=O)O)ccc4C(=O)O)c(CC)c(C#N)c3=O)nc(NCCn3c(O)c(N=Nc4cc(C(=O)O)ccc4C(=O)O)c(CC)c(C#N)c3=O)n2)c(=O)c1C#N [Compound 273]			◯	⊚	⊚	⊚
Cc1c(N=Nc2cc(C(=O)O)ccc2C(=O)O)c(O)n(CCCNc2nc(NCCn3c(O)c(N=Nc4cc(C(=O)O)ccc4C(=O)O)c(C)c(C#N)c3=O)nc(NCCn3c(O)c(N=Nc4c(C(=O)O)cccc4C(=O)O)c(C)c(C#N)c3=O)n2)c(=O)c1C#N [Compound 274]			Δ	⊚	◯	⊚
